Series [1] has as its system Staphylococcus aureus Smith. Put plainly: Mouse intraperitoneal infection, survival after one week. Format: in vivo, ddY strain mice. Conditions: po, 3 × 10^6 per mouse, one dose per os 2 h after infection. The procedure:
(§1) ddY--Strain mice (male; body weight 20±1 grams) of SPF were innoculated with the bacteria set forth in Table 2 by administration of a supension of the bacterial in 4% mucin solution into the abdominal cavity. A compound of the invention was given one time per os two hours after the infection, and, from the survival rate after one week. 50% effective doses (ED50) were calculated by the Behrens-Karber method.

Series [2] relates to Pseudomonas aeruginosa E-2. Described as above. The series is classed as in vivo, ddY strain mice. The conditions noted are these: E2, po; Pseudomonas aeruginosa E-2, 2 × 10^5 per mouse; one dose per os 2 h after infection; Behrens-Karber. The method, then: as §1
The subject of series [3] is Klebsiella pneumoniae K-1966. Described as above. The series is classed as in vivo, ddY strain mice. The conditions noted are these: K1966, po; Klebsiella pneumoniae K-1966, 3 × 10^3 per mouse; one dose per os 2 h after infection. The method, then:
as §1

Series [4] has as its system Escherichia coli KC-14. Described as above. The series is classed as in vivo, ddY strain mice. Conditions: KC14, po; Escherichia coli KC-14, 5 × 10^4 per mouse; one dose per os 2 h after infection. The procedure: as §1
The test system of series [5] is Proteus mirabilis 181. The series is described as above. Format: in vivo, ddY strain mice. Conditions: po; Proteus mirabilis 181, 2 × 10^7 per mouse; one dose per os 2 h after infection. The method, then:
as §1

Series [6] relates to Acimetobacter calcoaceticus. Described as above. The conditions noted are these: po, 1 × 10^7 per mouse, one dose per os 2 h after infection. Format: in vivo, ddY strain mice. The method, then:
as §1

Another series has as its system Serracia marcescens T-55. Described as above. Format: in vivo, ddY strain mice. The conditions noted are these: po; Serracia marcescens T-55, 5 × 10^6 per mouse; one dose per os 2 h after infection. The procedure:
as §1

Series [7] concerns Pseudomonas aeruginosa E-2. Put plainly: Ascending urinary tract infection. The series is classed as in vivo, ICR female mice. The method, then:
ICR Female mice (body weight 20±1 grams) of SPE strain were used in the experiments. The mice were not given any water for seventeen hours, then compulsorily urinated, anesthesized by the administration of 60 mg/kg of pentobarbital into the abdominal cavity, then 1.5×10^5 of Pseudomonas aeruginosa E-2 strain were impregnated into the bladder via the urinary tract, and the external urinary meatus was stopped for four hours by a pin clip, whereupon the mice were infected in the ascending urinary tract.
The compound of Example 22b was given once orally, 4 hours after infection, then twice a day, and the administration was continued for three days. On the fourth day, the kidney was isolated, homogenized in a physiological saline solution, and the number of bacteria was calculated on suitable medium such as, for example, Drigalski medium. If the number of bacteria per one gram of kidney was less than […], then the compound was judged as "effective".

Series [8] can be described thus: Excretion into urine and recovery, disc method. Conditions: 60 mg/kg per os, average ± standard error. The series is classed as in vivo, ddY strain mice. The procedure: In the measurement of excretion into urine, ddY strain mice (male; body weights 30±2 grams) were used. Sixty mg/kg of the compound of Example 22b was administered per os and the mice were fed in metabolic cages and their urine was collected.
Therefore, in the quantitative determination, the calibration curve of the compound of Example 21, calculated by the disc method using Escherichia coli NIHJ strain and using the compound dissolved in phosphoric acid buffer (pH 8.0; 1/15M) was used. Table 5 reports the excretion into urine with respect to time, total recovery amount and recovery rate of the compound of Example 22b.

The nature of series [9]: Blood serum concentration, disc method. The series is classed as in vivo, ddY strain mice. The conditions noted are these: mouse, serum, po, 60 mg/kg per os, average ± standard error. The procedure: In this experiment, ddY strain mice (male; body weight 30±2 grams) were used. Sixty mg/kg of the compound of Example 22b were given per os. The blood concentration was calculated from calibration curves obtained by the disc method using Escherichia coli NIHJ strain as tested bacteria and diluting the test compound of mice serum.

For series [10], the system named is Pseudomonas cepacia ATCC 25416. Description: Minimum growth inhibiting concentration, Japan Chemotherapeutic Society method. Format: cell-based. Conditions: Burkholderia cepacia, ATCC25416; Pseudomonas cepacia ATCC 25416, Gram -; read-out: Minimum Growth Inhibiting Concn. The method, then: (§2) The Antibacterial activity of the compounds of Examples 14, 13, 22b, 21 and 15 was determined in accordance with the method of Japan Chemotherapeutic Society (cf. Nippon Kagaku Ryoho Gakkai Shi, volume 29, number 1, pages 76 to 79, 1981) and the results are reported in Table 1, which follows.

Another series concerns Proteus vulgaris DX-19. The description is as above. Format: cell-based. Conditions: DX19; Proteus vulgaris DX-19, Gram -; read-out: Minimum Growth Inhibiting Concn. The method, then:
as §2

The test system of series [11] is Staphylococcus aureus Smith. The series is described as above. Format: cell-based. The conditions noted are these: Gram +, read-out: Minimum Growth Inhibiting Concn. The procedure:
as §2

For series [12], the system named is Acinetobacter calcoacelicus 54. Described as above. The series is classed as cell-based. The conditions noted are these: Acinetobacter calcoacelicus 54, Gram -; read-out: Minimum Growth Inhibiting Concn. The procedure:
as §2

For series [13], the system named is Listeria monocytogenes RIMD 1205020. Described as above. Format: cell-based. The conditions noted are these: RIMD1205020; Listeria monocytogenes RIMD 1205020, Gram +; read-out: Minimum Growth Inhibiting Concn. The procedure: as §2
In series [14] the test system is Pseudomonas maltophilia ATCC 13637. The series is described as above. Format: cell-based. Conditions: Stenotrophomonas maltophilia, ATCC13637; Pseudomonas maltophilia ATCC 13637, Gram -; read-out: Minimum Growth Inhibiting Concn. The method, then:
as §2

For series [15], the system named is Pseudomonas aeruginosa E-2. Described as above. The series is classed as cell-based. Conditions: E2; Pseudomonas aeruginosa E-2, Gram -; read-out: Minimum Growth Inhibiting Concn. The procedure: as §2
Series [16] deals with Klebsiella pneumoniae K-1966. The description is as above. Format: cell-based. Conditions: K1966; Klebsiella pneumoniae K-1966, Gram -; read-out: Minimum Growth Inhibiting Concn. The procedure:
as §2

In series [17] the test system is Escherichia coli KC-14. The series is described as above. The series is classed as cell-based. Conditions: KC14; Escherichia coli KC-14, Gram -; read-out: Minimum Growth Inhibiting Concn. The method, then:
as §2

For series [18], the system named is Staphylococcus aureus 209-PJC. Described as above. The conditions noted are these: Gram +, read-out: Minimum Growth Inhibiting Concn. The series is classed as cell-based. The method, then:
as §2

The test system of series [19] is Pseudomonas aeruginosa No. 12. The series is described as above. The series is classed as cell-based. The conditions noted are these: Pseudomonas aeruginosa No. 12, Gram -; read-out: Minimum Growth Inhibiting Concn. The procedure: as §2
The test system of series [20] is Alcaligenes faecalis ATCC 8750. The description is as above. The series is classed as cell-based. The conditions noted are these: ATCC8750; Alcaligenes faecalis ATCC 8750, Gram -; read-out: Minimum Growth Inhibiting Concn. The method, then:
as §2

In series [21] the test system is Proteus mirabilis 181. The series is described as above. The series is classed as cell-based. The conditions noted are these: Proteus mirabilis 181, Gram -; read-out: Minimum Growth Inhibiting Concn. The procedure:
as §2

Series [22] has as its system Escherichia coli NIHJ JC-2. The description is as above. Format: cell-based. Conditions: NIHJJC2; Escherichia coli NIHJ JC-2, Gram -; read-out: Minimum Growth Inhibiting Concn. The procedure:
as §2

In series [23] the test system is Serracia marcescens IFO 3736. The description is as above. The series is classed as cell-based. Conditions: Serracia marcescens IFO 3736, Gram -; read-out: Minimum Growth Inhibiting Concn. The method, then:
as §2

In series [24] the test system is Micrococcus luteus ATCC 9341. The description is as above. Format: cell-based. Conditions: ATCC9341; Micrococcus luteus ATCC 9341, Gram +; read-out: Minimum Growth Inhibiting Concn. The method, then: as §2
A further series can be described thus: Acute toxicity. Conditions: mouse, in vivo; oral, groups of ten ddY male mice; read-out: 50% Lethal Doses (LD50). The method, then:
Groups of ten ddY strain male mice (body weights: 20±1 grams) of the test compound were orally administered to determine the LD50. There was […] in which many mice died when the dose was 2000 mg/kg or less.

For series [25], the system named is Bacillus subtilis ATCC 6633. Put plainly: Minimum growth inhibiting concentration, Japan Chemotherapeutic Society method. The conditions noted are these: ATCC6633; Bacillus subtilis ATCC 6633, Gram +; 5% horse blood added agar medium; read-out: Minimum Growth Inhibiting Concn. The series is classed as cell-based. The method, then: (§3) The Antibacterial activity of the compounds of Examples 14, 13, 22b, 21 and 15 was determined in accordance with the method of Japan Chemotherapeutic Society (cf. Nippon Kagaku Ryoho Gakkai Shi, volume 29, number 1, pages 76 to 79, 1981) and the results are reported in Table 1, which follows. | *5% Horse blood added agar medium for sensitivity measurement being used.

Series [26] relates to Streptococcus pyogenes S-23. The series is described as above. The series is classed as cell-based. The conditions noted are these: S23; Streptococcus pyogenes S-23, Gram +; 5% horse blood added agar medium; read-out: Minimum Growth Inhibiting Concn. The procedure:
as §3

In series [27] the test system is Streptococcus pneumoniae Type I. Described as above. The series is classed as cell-based. Conditions: Gram +, 5% horse blood added agar medium, read-out: Minimum Growth Inhibiting Concn. The method, then: as §3

≈ marks a conversion by molar mass, not a printed value.

In general, LD50 refers to the dose at which mortality reaches 50%.

In the case of `CCn1cc(C(=O)O)c(=O)c2cc(F)c(N3CCNCC3)cc21` [Comparison Compd., 1-ethyl-6-fluoro-7-(1-piperazinyl)-4-oxo-1,4-dihydroquinoline-3-carboxylicacid, reference compound], the ED50 is greater than 25 mg/kg in series [1]; 260 mg/kg in [2]; greater than 13 mg/kg in [3]; 3.3 mg/kg in the series with Escherichia coli KC-14 [4]; 29 mg/kg with Proteus mirabilis 181 [5]; greater than 35 mg/kg in [6]. The ED50 in the series on Serracia marcescens T-55 turned out to be 6 mg/kg; in [7] (Pseudomonas aeruginosa, E2, in Mus musculus, 72 h, ascending urinary tract infection, oral, three days, read-out: 50% Effective Dose), 58 mg/kg. For the same molecule, the “Number Of Mice Where Compound Was Effective/Total Mice Tested” value in series [7] (3.13 mg/kg oral) is 0/7; in series [7] (6.25 mg/kg oral) it was 0/7; in series [7] (12.5 mg/kg oral), 0/7; in series [7] (25 mg/kg oral), 1/7; in [7] (50 mg/kg oral), 4/7; in [7] (100 mg/kg oral, 4 h after infection then twice a day, three days), 6/7. The entries for the “Amount excreted into Urine” value in series [8] (0-3 hrs), in series [8] (3-6 hrs) and in series [8] (6-24 hrs) were 60.25 ± 17.9 µg, 29.25 ± 9.0 µg and 19.78 ± 6.6 µg, respectively. The same molecule had a concentration at 0.25 h in series [9] (0.25 hours) of 640 ± 90 ng/mL. In addition, the concentration at 0.5 h in series [9] (0.5 hours) amounted to 900 ± 290 ng/mL. The concentration at 1 h in series [9] (1 hour) was determined as 580 ± 100 ng/mL. For the same molecule, in series [9] (2 hours), the concentration at 2 h is 330 ± 150 ng/mL. Further, in [9] (4 hours), the concentration at 4 h came out at 90 ± 10 ng/mL.
Regarding `C=CCN1CCN(c2cc3c(cc2F)c(=O)c(C(=O)O)c2sccn23)CC1` [Example 15, 8-(4-Allyl-1-piperazinyl)-7-fluoro-5-oxo-5H-thiazolo(3,2-a)-quinoline-4-carboxylic acid], the ED50 is 10.7 mg/kg in [2], 3.3 mg/kg in series [3], 2 mg/kg in the series on Escherichia coli KC-14 [4] and greater than 35 mg/kg in series [6]. In addition, the MIC in series [10] is 1.56 µg/mL (≈ 4.03 µM); with Proteus vulgaris DX-19, 0.05 µg/mL (≈ 0.129 µM); in [11], 0.013 µg/mL (≈ 0.0336 µM); in series [12], 0.39 µg/mL (≈ 1.01 µM); in series [13] it was 0.39 µg/mL (≈ 1.01 µM); in series [14] it was 6.3 ng/mL (≈ 0.0163 µM). For the same molecule, the MIC in series [15] came to 1.56 µg/mL (≈ 4.03 µM); in [16], 0.05 µg/mL (≈ 0.129 µM); in the series on Escherichia coli KC-14 [17], 0.05 µg/mL (≈ 0.129 µM); in [18] it was 0.025 µg/mL (≈ 0.0645 µM); in series [19], 0.78 µg/mL (≈ 2.01 µM); in [20] it was 0.78 µg/mL (≈ 2.01 µM). For the same molecule, the MIC came out at 0.2 µg/mL (≈ 0.516 µM) in the series on Proteus mirabilis 181 [21]; 0.2 µg/mL (≈ 0.516 µM) in [22]; 0.39 µg/mL (≈ 1.01 µM) in series [23]; 1.56 µg/mL (≈ 4.03 µM) in [24]; 6.3 ng/mL (≈ 0.0163 µM) in series [25]; 0.1 µg/mL (≈ 0.258 µM) in series [26]. For the same molecule, in [27], the MIC is 0.39 µg/mL (≈ 1.01 µM). Besides, the LD50 in the series “Acute toxicity” was greater than 2000 mg/kg.

The values are drawn from patent publication US4659734A, “Olinecarboxylic acid derivatives” (Nippon Shinyaku Co., Ltd., priority 1983, dated 1987).
